Experimental data: US12660819B2, “Herbicidal derivatives” (SYNGENTA CROP PROTECTION AG, priority 2020, dated 2026)

Tests used:
Format in all cases: in vivo
[1] = test system: Abutilon theophrasti (ABUTH); assay: Post-emergence Test (glasshouse, percentage damage to the plant); settings: post-emergence spray, 1000 g/ha unless otherwise stated, evaluated after 13 days
Procedure, shortened: (§1)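 Spray treatment of sown glasshouse pots at 1000 g/ha (default rate), vehicle acetone/water 50:50 plus 0.5% Tween 20. Read-out: percentage damage after 13 days, converted to a score where 5 denotes 81-100% and 1 denotes 0-20%.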

[2] = test system: Amaranthus retoflexus (AMARE); assay: as above; settings: post-emergence spray, 1000 g/ha unless otherwise stated, evaluated after 13 days
Procedure, shortened: as §1

[3] = test system: Echinochloa crus-galli (ECHCG); assay: as above; settings: post-emergence spray, 1000 g/ha unless otherwise stated, evaluated after 13 days
Procedure, shortened: as §1

[4] = test system: Ipomoea hederacea (IPOHE); assay: as above; settings: post-emergence spray, 1000 g/ha unless otherwise stated, evaluated after 13 days
Procedure, shortened: (§2)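 Seeds sown in standard soil in a glasshouse (24/16 °C day/night, 14 h light, 65% humidity), then sprayed with an aqueous solution of the compound formulated in acetone/water 50:50 with 0.5% Tween 20 at 1000 g/ha unless otherwise stated. Percentage damage was scored after 13 days on a five-point scale (5=81-100%; 1=0-20%).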

Setaria faberi (SETFA) [5] = assay: as above; settings: post-emergence spray, 1000 g/ha unless otherwise stated, evaluated after 13 days
Procedure, shortened: as §2

Zea mays (ZEAMX) [6] = assay: as above; settings: post-emergence spray, 1000 g/ha unless otherwise stated, evaluated after 13 days
Procedure, shortened: as §2

[7] = test system: Amaranthus retoflexus (AMARE); assay: Pre-emergence Test (glasshouse, percentage damage to the plant); settings: 1000 g/ha unless otherwise stated, five-point scale
Setaria faberi (SETFA) [8] = assay: as above; settings: 1000 g/ha unless otherwise stated, five-point scale
[9] = test system: Echinochloa crus-galli (ECHCG); assay: as above; settings: 1000 g/ha unless otherwise stated, five-point scale
[10] = test system: Ipomoea hederacea (IPOHE); assay: as above; settings: 1000 g/ha unless otherwise stated, five-point scale
[11] = test system: Abutilon theophrasti (ABUTH); assay: as above; settings: 1000 g/ha unless otherwise stated, five-point scale
Zea mays (ZEAMX) [12] = assay: as above; settings: 1000 g/ha unless otherwise stated, five-point scale

| SMILES | Post-emergence Test ABUTH, percentage damage to the plant (five-point scale) [1] | Post-emergence Test AMARE, percentage damage to the plant (five-point scale) [2] | Post-emergence Test ECHCG, percentage damage to the plant (five-point scale) [3] | Post-emergence Test IPOHE, percentage damage to the plant (five-point scale) [4] | Post-emergence Test SETFA, percentage damage to the plant (five-point scale) (Setaria faberi (SETFA) [5]) | Post-emergence Test ZEAMX, percentage damage to the plant (five-point scale) (Zea mays (ZEAMX) [6]) | percentage damage to the plant, AMARE [7] | percentage damage to the plant, SETFA (Setaria faberi (SETFA) [8]) | percentage damage to the plant, ECHCG [9] | percentage damage to the plant, IPOHE [10] | percentage damage to the plant, ABUTH [11] | percentage damage to the plant, ZEAMX (Zea mays (ZEAMX) [12]) |
| --- | --- | --- | --- | --- | --- | --- | --- | --- | --- | --- | --- | --- |
| CCOc1cc(C)cc(-c2c(C)n(CC)c(-c3ccc(Cl)c(Cl)c3)c(C(=O)O)c2=O)c1 [Compound 103, 2-(3,4-dichlorophenyl)-5-(3-ethoxy-5-methyl-phenyl)-1-ethyl-6-methyl-4-oxo-pyridine-3-carboxylic acid] | 2 (2=21-40%) | 1 (1=0-20%) | 1 (1=0-20%) | 1 (1=0-20%) | 1 (1=0-20%) | 1 (1=0-20%) | 1 (1=0-20%) | 2 (2=21-40%) | 1 (1=0-20%) | 1 (1=0-20%) | 1 (1=0-20%) | 1 (1=0-20%) |
| CCn1c(C)c(-c2ccc(F)c(F)c2)c(=O)c(C(=O)O)c1-c1ccc(Cl)c(Cl)c1 [Compound 104, 2-(3,4-dichlorophenyl)-5-(3,4-difluorophenyl)-1-ethyl-6-methyl-4-oxo-pyridine-3-carboxylic acid] | 3 (3=41-60%) | 3 (3=41-60%) | 3 (3=41-60%) | 1 (1=0-20%) | 4 (4=61-80%) | 1 (1=0-20%) | 4 (4=61-80%) | 4 (4=61-80%) | 2 (2=21-40%) | 1 (1=0-20%) | 2 (2=21-40%) | 1 (1=0-20%) |
| CCn1c(C)c(-c2ccc(F)c(OCC(F)(F)F)c2)c(=O)c(C(=O)O)c1-c1ccc(Cl)c(Cl)c1 [Compound 105, 2-(3,4-dichlorophenyl)-1-ethyl-5-[4-fluoro-3-(2,2,2-trifluoroethoxy)phenyl]-6-methyl-4-oxo-pyridine-3-carboxylic acid] | 2 (2=21-40%) | 2 (2=21-40%) | 3 (3=41-60%) | 1 (1=0-20%) | 4 (4=61-80%) | 2 (2=21-40%) | 3 (3=41-60%) | 4 (4=61-80%) | 2 (2=21-40%) | 1 (1=0-20%) | 1 (1=0-20%) | 1 (1=0-20%) |
| CCn1c(C)c(-c2cccc(C(F)F)c2)c(=O)c(C(=O)O)c1-c1ccc(Cl)c(Cl)c1 [Compound 106, 2-(3,4-dichlorophenyl)-5-[3-(difluoromethyl)phenyl]-1-ethyl-6-methyl-4-oxo-pyridine-3-carboxylic acid] | 3 (3=41-60%) | 3 (3=41-60%) | 1 (1=0-20%) | 2 (2=21-40%) | 1 (1=0-20%) | 1 (1=0-20%) | 1 (1=0-20%) | 1 (1=0-20%) | 1 (1=0-20%) | 1 (1=0-20%) | 2 (2=21-40%) | 1 (1=0-20%) |
